Experimental findings from ChEMBL document CHEMBL2203274, “Desmethyl Macrolides: Synthesis and Evaluation of 4,8-Didesmethyl Telithromycin” (2012) are described below.

Bounds are passed on as bounds.

Format in all cases: functional
In assay [1] the test system is Staphylococcus aureus. Kind of assay: Antibacterial activity against Staphylococcus aureus ATCC 33591 harboring ermA mutant in presence of DMSO.
The subject of assay [2] is Escherichia coli. Nature of the assay: Antibacterial activity against wild type Escherichia coli DK/pKK3535 in presence of DMSO.
In assay [3] the test system is Escherichia coli. Nature of the assay: Antibacterial activity against Escherichia coli SQ171/2058G harboring 23S rRNA A2058G mutant in presence of DMSO.
For assay [4], the system named is Staphylococcus aureus. Nature of the assay: Antibacterial activity against Staphylococcus aureus UCN14 harboring ribosomal A2058T mutant in presence of DMSO.
Assay [5] concerns Escherichia coli. Nature of the assay: Antibacterial activity against Escherichia coli DK/2058G harboring 23S rRNA A2058G mutant in presence of DMSO.
The test system of assay [6] is Escherichia coli. Nature of the assay: Antibacterial activity against wild type Escherichia coli DK/pKK3535 in presence of ethanol.
In assay [7] the test system is Staphylococcus aureus. Nature of the assay: Antibacterial activity against Staphylococcus aureus UCN14 harboring ribosomal A2058T mutant in presence of ethanol.
Assay [8] has as its system Escherichia coli. Kind of assay: Antibacterial activity against Escherichia coli DK/2058G harboring 23S rRNA A2058G mutant in presence of ethanol.
The subject of assay [9] is Escherichia coli. Kind of assay: Antibacterial activity against Escherichia coli SQ171/2058G harboring 23S rRNA A2058G mutant in presence of ethanol.
Assay [10] deals with Staphylococcus aureus. Kind of assay: Antibacterial activity against Staphylococcus aureus ATCC 33591 harboring ermA mutant in presence of ethanol.

A word on the MIC: it is the lowest concentration that inhibits growth of the organism. For the compound `CC[C@H]1OC(=O)[C@H](C)C(=O)C[C@@H](O[C@@H]2O[C@H](C)C[C@H](N(C)C)[C@H]2O)[C@](C)(OC)C[C@@H](C)C(=O)C[C@H]2N(CCCCn3cnc(-c4cccnc4)c3)C(=O)O[C@]12C`, the MIC in the assay with Staphylococcus aureus [1] is more than 128 µg/mL; in the assay with Escherichia coli [2], 8 µg/mL; in the assay with Escherichia coli [3] it was more than 512 µg/mL; in the assay on Staphylococcus aureus [4], more than 256 µg/mL; in the assay on Escherichia coli [5], 16 µg/mL.

Turning to `CC[C@H]1OC(=O)[C@H](C)C(=O)C[C@@H](O[C@@H]2O[C@H](C)C[C@H](N(C)C)[C@H]2O)[C@](C)(OC)CCC(=O)[C@H](C)[C@H]2N(CCCCn3cnc(-c4cccnc4)c3)C(=O)O[C@]12C`, the MIC in the assay with Staphylococcus aureus [1] is more than 64 µg/mL; in the assay with Escherichia coli [2], 4 µg/mL; with Escherichia coli [3] it was more than 512 µg/mL; in the assay with Staphylococcus aureus [4], more than 256 µg/mL; with Escherichia coli [5], 32 µg/mL.

Turning to `CC[C@H]1OC(=O)[C@H](C)C(=O)C[C@@H](O[C@@H]2O[C@H](C)C[C@H](N(C)C)[C@H]2O)[C@@](C)(OC)CCC(=O)C[C@H]2[C@@H]1OC(=O)N2CCCCn1cnc(-c2cccnc2)c1` [4,8,10-TRIDESMETHYL TELITHROMYCIN], the MIC in the assay on Escherichia coli [6] is 32 µg/mL; in the assay with Staphylococcus aureus [7], 32 µg/mL; in the assay with Escherichia coli [8], 64 µg/mL; in the assay on Escherichia coli [9] it was more than 512 µg/mL; with Staphylococcus aureus [10], more than 128 µg/mL.

In the case of `CC[C@H]1OC(=O)[C@H](C)C(=O)[C@H](C)[C@@H](O[C@@H]2O[C@H](C)C[C@H](N(C)C)[C@H]2O)[C@](C)(OC)C[C@@H](C)C(=O)[C@H](C)[C@H]2N(CCCCn3cnc(-c4cccnc4)c3)C(=O)O[C@]12C` [TELITHROMYCIN], the MIC with Escherichia coli [6] was 0.5 µg/mL; with Staphylococcus aureus [7], more than 256 µg/mL; with Staphylococcus aureus [1], more than 128 µg/mL; with Escherichia coli [8] it was 1 µg/mL; with Escherichia coli [2], 0.5 µg/mL; in the assay on Escherichia coli [3], more than 512 µg/mL. Also, the MIC with Staphylococcus aureus [4] was more than 128 µg/mL; with Escherichia coli [5] it was 1 µg/mL; in the assay on Escherichia coli [9] it was more than 512 µg/mL; in the assay with Staphylococcus aureus [10] it was more than 128 µg/mL.
